According to patent publication US9902759B2, “BH3 peptides and methods of use thereof” (Dana-Farber Cancer Institute, Inc., priority 2002, dated 2018):
Ends that are not written are not given here.

How the values were obtained:
[1] = test system: B-cell lymphoblastic leukemia; assay: Doxycycline treatment of tet-BCL-2/MMTV-tTA/Eμ-myc leukemic mice; type: in vivo, mouse; settings: doxycycline 500 μg/ml in drinking water, from 4-5 weeks of age
From the text: Using standard recombinant DNA technology, the tet-BCL-2 allele was targeted to the DNA methyltransferase 1 locus (FIG. 10). By crossing the new mouse line with the MMTV-tTA line (Jackson Labs) mice were generated which conditionally overexpress BCL-2 in epithelial cells and in B-lineage lymphocytes. Administration of doxycycline successfully suppresses BCL-2 overexpression in these animals. When these mice are crossed with mice expressing myc in the B-lymphocyte lineage (Eμ-myc mice, Jackson Labs) mice which uniformly have B-cell lymphoblastic leukemia were obtained.
To examine the effect of removing BCL-2 expression form the leukemia cells, the effects of doxycycline treatment in a cohort of 28 mice were examined. By genotype, each of the 28 mice contained the tet-BCL-2, the MMTV-tTA, and the Eμ-myc alleles. […] At 4-5 weeks of age, half were treated with doxycycline (500 μg/ml) in drinking water, and half were left untreated. The WBC was measured by hemocytometer using 2 μl blood from tail which was lysed with 0.3% saponin and stained with Hoechst 33258.

GST-BCL-2 [2] = molecular target: T1, GST-BCL-2 (Homo sapiens, UniProt P10415); assay: BH3 peptide displacement from GST-BCL-2 by fluorescence polarization; type: binding
T1 construct: a GST-BCL-2 fusion protein lacking the C-terminal transmembrane domain was utilized; made in house; host or cells: E. coli BL21 DE3
From the text: (§1) To determine Kd for peptide binding to BCL-2, a GST-BCL-2 fusion protein lacking the C-terminal transmembrane domain was utilized. Peptides were synthesized with a fluorescein amino-terminus using an AHA linker. […] An increase in fluorescence polarization measured on a Perkin-Elmer LS 50B luminescence spectrophotometer was quantitated to calculate binding. A non-linear fit to a sigmoidal dose-response curve utilized the program Origin 6.0 to determine Kd. […] Data were fitted to a sigmoidal curve as above, and IC50 determined.
(§2) GST-BCL-2δC21 fusion proteins were induced in BL21 DE3 by 0.1 mM IPTG. The bacterial pellets were resuspended in lysis buffer (1 mg/ml lysozyme/1% Triton X-100/0.1 mg/ml PMSF/2 μg/ml aprotinin/2 μg/ml leupeptine/1 μg/ml pepstatin A in PBS) and sonicated. After centrifugation at 20,000×g for 20 min, the supernatant was applied to glutathione-agarose beads (Sigma). The beads were washed with PBS and treated with 50 mM glutathione/50 mM TrisHCl, pH8.0 to elute protein. Eluate was dialyzed against binding buffer and concentrated using Amicon centrifugal concentrating devices.

GST-BCL-2 [3] = molecular target: T1, GST-BCL-2; assay: Fluorescence polarization binding of fluoresceinated BH3 peptides to GST-BCL-2; settings: Kd (nM), BCL-2 Binding, 25 nM fluoresceinated peptide, GST-BCL-2 titration, 37° C.
From the text: as §1, §2

MCL-1 = MCL-1 (Homo sapiens, UniProt Q07820); assay: MCL-1 binding
Chain of MCL-1 (Q07820 whole entry, species assumed): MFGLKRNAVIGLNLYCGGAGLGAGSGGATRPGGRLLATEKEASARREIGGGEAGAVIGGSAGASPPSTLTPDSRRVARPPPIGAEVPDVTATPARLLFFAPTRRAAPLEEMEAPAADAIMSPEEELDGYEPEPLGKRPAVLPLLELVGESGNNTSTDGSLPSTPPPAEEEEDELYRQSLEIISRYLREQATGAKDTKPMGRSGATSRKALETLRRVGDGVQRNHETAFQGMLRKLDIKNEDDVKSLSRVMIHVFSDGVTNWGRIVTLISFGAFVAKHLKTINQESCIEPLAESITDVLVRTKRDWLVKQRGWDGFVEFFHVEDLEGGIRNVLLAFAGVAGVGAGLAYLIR

T1 sequence (P10415 1-218 limits assumed): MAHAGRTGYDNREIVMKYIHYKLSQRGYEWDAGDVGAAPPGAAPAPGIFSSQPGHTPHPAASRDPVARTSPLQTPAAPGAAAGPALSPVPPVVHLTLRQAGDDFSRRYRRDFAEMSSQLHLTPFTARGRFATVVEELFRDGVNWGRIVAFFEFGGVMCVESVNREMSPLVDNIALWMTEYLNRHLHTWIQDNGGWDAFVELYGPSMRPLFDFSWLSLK

Compound: C[C@H]1c2cccc(O)c2C(=O)C2=C(O)[C@]3(O)C(=O)C(C(N)=O)=C(O)[C@@H](N(C)C)[C@@H]3[C@@H](O)[C@@H]21 [doxycycline]
- decrease in WBC [1]: 1-2 log

Compound: EDIIRNIARHAAQVGASMDR [BIDBH3 mut]
- IC50 (GST-BCL-2 [2]): > 30000 nM
- Kd (GST-BCL-2 [3]): > 1000 nM
- Kd (MCL-1): > 2600 nM
